In the test the target is T1, furin (Homo sapiens, UniProt P09958).
T1 construct: made in house; host or cells: Drosophila S2 cells (Invitrogen expression system)
The experiment in a line: biochemical. Particulars: read-out: Ki.

Where [1] appears, read: furin, Pyr-RTKR-AMC substrate, optimization of the inhibitory peptides (Table 3).
The mark [2] stands for this setting: furin, Pyr-RTKR-AMC substrate, alanine scanning mutagenesis of the H5 furin cleavage sequence (Table 2).

Data on 25 compounds can be found in patent US8053553B2, “Targeting host proteinases as a therapeutic strategy against viral and bacterial pathogens” (Socpra Sciences Sante Et Humaines, priority 2007, dated 2011).

The structures appear in SMILES notation. Where two headings read alike, the source gives them in different places. Residues, ends and D or L forms follow the SMILES beside them.

T1 sequence (P09958 108-794 limits assumed): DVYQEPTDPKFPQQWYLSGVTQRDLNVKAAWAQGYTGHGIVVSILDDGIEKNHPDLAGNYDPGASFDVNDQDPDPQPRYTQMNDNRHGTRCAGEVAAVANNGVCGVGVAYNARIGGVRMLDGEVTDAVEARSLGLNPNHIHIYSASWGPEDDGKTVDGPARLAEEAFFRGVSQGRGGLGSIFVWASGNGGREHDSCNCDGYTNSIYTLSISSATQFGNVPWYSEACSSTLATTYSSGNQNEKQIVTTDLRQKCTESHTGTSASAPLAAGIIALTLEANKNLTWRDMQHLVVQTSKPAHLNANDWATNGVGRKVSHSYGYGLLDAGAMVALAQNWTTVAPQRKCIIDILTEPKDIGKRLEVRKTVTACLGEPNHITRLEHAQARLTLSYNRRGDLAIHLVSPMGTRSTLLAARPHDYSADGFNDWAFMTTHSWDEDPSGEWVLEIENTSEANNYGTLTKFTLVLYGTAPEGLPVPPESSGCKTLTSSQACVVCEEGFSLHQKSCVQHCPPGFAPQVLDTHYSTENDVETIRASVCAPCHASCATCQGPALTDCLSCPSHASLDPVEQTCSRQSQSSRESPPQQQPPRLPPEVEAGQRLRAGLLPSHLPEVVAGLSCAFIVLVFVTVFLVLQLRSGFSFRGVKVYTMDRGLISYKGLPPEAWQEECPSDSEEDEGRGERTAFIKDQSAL

For the compound `C[C@H](NC(=O)[C@H](CCCNC(=N)N)NC(=O)[C@@H]1CCCN1)C(=O)N[C@@H](CCCNC(=N)N)C(=O)N[C@@H](CCCNC(=N)N)C(=O)N[C@@H](CCCNC(=N)N)C(=O)N[C@@H](CCCCN)C(=O)N[C@@H](CCCCN)C(=O)N[C@@H](CCCNC(=N)N)C(=O)N[C@H](C(N)=O)[C@@H](C)O`, the Ki (furin, Pyr-RTKR-AMC substrate, N-terminal deletions (Example 2, Table 6)) came to 16.6 nM.

For `C[C@H](NC(=O)[C@H](CCCNC(=N)N)NC(=O)[C@H](CCC(N)=O)NC(=O)[C@@H]1CCCN1C(=O)[C@@H](N)[C@@H](C)O)C(=O)N[C@@H](CCCNC(=N)N)C(=O)N[C@@H](CCCNC(=N)N)C(=O)N[C@@H](CCCNC(=N)N)C(=O)N[C@@H](CCCCN)C(=O)N[C@@H](CCCCN)C(=O)N[C@@H](CCCNC(N)=O)C(=O)NCC(N)=O`, under setting [1], the Ki is above 100 nM.

Take `C[C@H](NC(=O)[C@H](CCCNC(=N)N)NC(=O)[C@H](CCC(N)=O)NC(=O)[C@@H]1CCCN1C(=O)[C@@H](N)[C@@H](C)O)C(=O)N[C@@H](CCCNC(=N)N)C(=O)N[C@@H](CCCNC(=N)N)C(=O)N[C@@H](CCCNC(=N)N)C(=O)N[C@@H](CCCCN)C(=O)N[C@@H](CCCCN)C(=O)N[C@@H](CCCNC(=N)N)C(=O)NCC(N)=O`: the Ki under setting [1] was above 100 nM.

With `C[C@H](NC(=O)[C@H](CCCNC(=N)N)NC(=O)[C@H](CCC(N)=O)NC(=O)[C@@H]1CCCN1C(=O)[C@@H](N)[C@@H](C)O)C(=O)N[C@@H](CCCNC(=N)N)C(=O)N[C@@H](CCCNC(=N)N)C(=O)N[C@@H](CCCNC(=N)N)C(=O)N[C@@H](CCCCN)C(=O)N[C@@H](CCCCN)C(=O)N[C@H](CCCNC(=N)N)C(=O)NCC(N)=O`, the Ki under setting [1] was above 100 nM.

Consider `C[C@@H](O)[C@H](N)C(=O)N1CCC[C@H]1C(=O)N[C@@H](CCC(N)=O)C(=O)N[C@@H](CCCNC(=N)N)C(=O)N[C@@H](CS)C(=O)N[C@@H](CCCNC(=N)N)C(=O)N[C@@H](CCCNC(=N)N)C(=O)N[C@@H](CCCNC(=N)N)C(=O)N[C@@H](CCCCN)C(=O)N[C@@H](CCCCN)C(=O)N[C@@H](CCCNC(=N)N)C(=O)NCC(N)=O`, for which the Ki under setting [1] is above 100 nM.

As for `C[C@@H](O)[C@H](N)C(=O)N1CCC[C@H]1C(=O)N[C@@H](CCC(N)=O)C(=O)N[C@@H](CCCNC(=N)N)C(=O)N[C@@H](CCC(=O)O)C(=O)N[C@@H](CCCNC(=N)N)C(=O)N[C@@H](CCCNC(=N)N)C(=O)N[C@@H](CCCNC(=N)N)C(=O)N[C@@H](CCCCN)C(=O)N[C@@H](CCCCN)C(=O)N[C@@H](CCCNC(=N)N)C(=O)NCC(N)=O`, under setting [1], the Ki is above 100 nM.

For `C[C@@H](O)[C@H](N)C(=O)N1CCC[C@H]1C(=O)N[C@@H](CCC(N)=O)C(=O)N[C@@H](CCCNC(=N)N)C(=O)N[C@@H](CCCCN)C(=O)N[C@@H](CCCNC(=N)N)C(=O)N[C@@H](CCCNC(=N)N)C(=O)N[C@@H](CCCNC(=N)N)C(=O)N[C@@H](CCCCN)C(=O)N[C@@H](CCCCN)C(=O)N[C@@H](CCCNC(=N)N)C(=O)NCC(N)=O`, the Ki under setting [1] was above 100 nM.

With `CC(C)C[C@H](NC(=O)[C@H](CCCNC(=N)N)NC(=O)[C@H](CCC(N)=O)NC(=O)[C@@H]1CCCN1C(=O)[C@@H](N)[C@@H](C)O)C(=O)N[C@@H](CCCNC(=N)N)C(=O)N[C@@H](CCCNC(=N)N)C(=O)N[C@@H](CCCNC(=N)N)C(=O)N[C@@H](CCCCN)C(=O)N[C@@H](CCCCN)C(=O)N[C@@H](CCCNC(=N)N)C(=O)NCC(N)=O`, the Ki under setting [1] is above 100 nM.

In the case of `CSCC[C@H](NC(=O)[C@H](CCCNC(=N)N)NC(=O)[C@H](CCC(N)=O)NC(=O)[C@@H]1CCCN1C(=O)[C@@H](N)[C@@H](C)O)C(=O)N[C@@H](CCCNC(=N)N)C(=O)N[C@@H](CCCNC(=N)N)C(=O)N[C@@H](CCCNC(=N)N)C(=O)N[C@@H](CCCCN)C(=O)N[C@@H](CCCCN)C(=O)N[C@@H](CCCNC(=N)N)C(=O)NCC(N)=O`, the Ki under setting [1] is above 100 nM.

On to `C[C@@H](O)[C@H](N)C(=O)N1CCC[C@H]1C(=O)N[C@@H](CCC(N)=O)C(=O)N[C@@H](CCCNC(=N)N)C(=O)N[C@@H](CCCNC(=N)N)C(=O)N[C@@H](CCCNC(=N)N)C(=O)N[C@@H](CCCNC(=N)N)C(=O)N[C@@H](CCCNC(=N)N)C(=O)N[C@@H](CCCCN)C(=O)N[C@@H](CCCCN)C(=O)N[C@@H](CCCNC(=N)N)C(=O)NCC(N)=O`, for which the Ki under setting [1] is above 100 nM.

For `C[C@H](NC(=O)[C@H](CCCNC(=N)N)NC(=O)[C@@H]1CCCN1C(=O)[C@@H](N)[C@@H](C)O)C(=O)N[C@@H](CCCNC(=N)N)C(=O)N[C@@H](CCCNC(=N)N)C(=O)N[C@@H](CCCNC(=N)N)C(=O)N[C@@H](CCCCN)C(=O)N[C@@H](CCCCN)C(=O)N[C@@H](CCCNC(=N)N)C(N)=O`, the Ki under setting [2] amounted to 138 nM.

In the case of `C[C@H](NC(=O)[C@H](CCCNC(=N)N)NC(=O)[C@@H]1CCCN1C(=O)[C@@H](N)[C@@H](C)O)C(=O)N[C@@H](CCCNC(=N)N)C(=O)N[C@@H](CCCNC(=N)N)C(=O)N[C@@H](CCCNC(=N)N)C(=O)N[C@@H](CCCCN)C(=O)N[C@@H](CCCCN)C(=O)N[C@@H](CCCNC(=N)N)C(=O)N(C)CC(N)=O`, the Ki under setting [2] is above 100 nM.

With `C[C@H](NC(=O)[C@H](C)NC(=O)[C@H](CCCNC(=N)N)NC(=O)[C@H](CCCNC(=N)N)NC(=O)[C@H](CCCNC(=N)N)NC(=O)[C@H](CCC(=O)O)NC(=O)[C@H](CCCNC(=N)N)NC(=O)[C@@H]1CCCN1C(=O)[C@@H](N)[C@@H](C)O)C(=O)N[C@@H](CCCNC(=N)N)C(N)=O`, under setting [2], the Ki is above 100 nM.

For the compound `C[C@H](NC(=O)[C@H](C)NC(=O)[C@H](CCCNC(=N)N)NC(=O)[C@H](CCCNC(=N)N)NC(=O)[C@H](CCCNC(=N)N)NC(=O)[C@H](CCC(=O)O)NC(=O)[C@H](CCCNC(=N)N)NC(=O)[C@@H]1CCCN1C(=O)[C@@H](N)[C@@H](C)O)C(=O)N[C@@H](CCCNC(=N)N)C(=O)NCC(N)=O`, the Ki under setting [2] is above 100 nM.

`C[C@H](NC(=O)[C@H](CCCNC(=N)N)NC(=O)[C@@H]1CCCN1C(=O)[C@@H](N)[C@@H](C)O)C(=O)N[C@@H](CCCNC(=N)N)C(=O)N[C@@H](CCCNC(=N)N)C(=O)N[C@@H](CCCNC(=N)N)C(=O)N[C@@H](CCCCN)C(=O)N[C@@H](CCCCN)C(=O)N[C@@H](CCCNC(=N)N)C(=O)N[C@@H](CC(=O)O)C(N)=O`: the Ki is 56 nM.

In the case of `C[C@H](N)C(=O)N[C@@H](C)C(=O)N[C@@H](C)C(=O)N[C@@H](CCC(=O)O)C(=O)N[C@@H](CCCNC(=N)N)C(=O)N[C@@H](CCCNC(=N)N)C(=O)N[C@@H](CCCNC(=N)N)C(=O)N[C@@H](CCCCN)C(=O)N[C@@H](CCCCN)C(=O)N[C@@H](CCCNC(=N)N)C(N)=O` (H-AAAERRRKKR-NH2), the Ki under setting [2] was above 100 nM.

`C[C@H](N)C(=O)N[C@@H](C)C(=O)N[C@@H](C)C(=O)N[C@@H](CCC(=O)O)C(=O)N[C@@H](CCCNC(=N)N)C(=O)N[C@@H](CCCNC(=N)N)C(=O)N[C@@H](CCCNC(=N)N)C(=O)N[C@@H](CCCCN)C(=O)N[C@@H](CCCCN)C(=O)N[C@@H](CCCNC(=N)N)C(=O)NCC(N)=O` (H-AAAERRRKKRG-NH2): under setting [2], the Ki was above 100 nM.

On to `CC(C)[C@H](NC(=O)[C@H](CCCNC(=N)N)NC(=O)[C@H](CCCCN)NC(=O)[C@H](CCCCN)NC(=O)[C@H](CCCNC(=N)N)NC(=O)[C@H](CCCNC(=N)N)NC(=O)[C@H](CCCNC(=N)N)NC(=O)[C@H](CCC(=O)O)NC(=O)[C@H](C)NC(=O)[C@H](C)NC(=O)[C@H](C)N)C(N)=O` (H-AAAERRRKKRV-NH2), for which the Ki under setting [2] was above 100 nM.

As to `C[C@H](N)C(=O)N[C@@H](C)C(=O)N[C@@H](CCCNC(=N)N)C(=O)N[C@@H](CCC(=O)O)C(=O)N[C@@H](CCCNC(=N)N)C(=O)N[C@@H](CCCNC(=N)N)C(=O)N[C@@H](CCCNC(=N)N)C(=O)N[C@@H](CCCCN)C(=O)N[C@@H](CCCCN)C(=O)N[C@@H](CCCNC(=N)N)C(N)=O` (H-AARERRRKKR-NH2), the Ki under setting [2] was above 100 nM.

Consider `C[C@H](N)C(=O)N[C@@H](C)C(=O)N[C@@H](CCCNC(=N)N)C(=O)N[C@@H](CCC(=O)O)C(=O)N[C@@H](CCCNC(=N)N)C(=O)N[C@@H](CCCNC(=N)N)C(=O)N[C@@H](CCCNC(=N)N)C(=O)N[C@@H](CCCCN)C(=O)N[C@@H](CCCCN)C(=O)N[C@@H](CCCNC(=N)N)C(=O)NCC(N)=O` (H-AARERRRKKRG-NH2), for which the Ki under setting [2] is above 100 nM.

Take `CC(C)[C@H](NC(=O)[C@H](CCCNC(=N)N)NC(=O)[C@H](CCCCN)NC(=O)[C@H](CCCCN)NC(=O)[C@H](CCCNC(=N)N)NC(=O)[C@H](CCCNC(=N)N)NC(=O)[C@H](CCCNC(=N)N)NC(=O)[C@H](CCC(=O)O)NC(=O)[C@H](CCCNC(=N)N)NC(=O)[C@H](C)NC(=O)[C@H](C)N)C(N)=O` (H-AARERRRKKRV-NH2): the Ki under setting [2] was above 100 nM.

For the compound `C[C@H](N)C(=O)N1CCC[C@H]1C(=O)N[C@@H](CCCNC(=N)N)C(=O)N[C@@H](CCC(=O)O)C(=O)N[C@@H](CCCNC(=N)N)C(=O)N[C@@H](CCCNC(=N)N)C(=O)N[C@@H](CCCNC(=N)N)C(=O)N[C@@H](CCCCN)C(=O)N[C@@H](CCCCN)C(=O)N[C@@H](CCCNC(=N)N)C(N)=O` (H-APRERRRKKR-NH2), under setting [2], the Ki is above 100 nM.

Take `C[C@H](N)C(=O)N1CCC[C@H]1C(=O)N[C@@H](CCCNC(=N)N)C(=O)N[C@@H](CCC(=O)O)C(=O)N[C@@H](CCCNC(=N)N)C(=O)N[C@@H](CCCNC(=N)N)C(=O)N[C@@H](CCCNC(=N)N)C(=O)N[C@@H](CCCCN)C(=O)N[C@@H](CCCCN)C(=O)N[C@@H](CCCNC(=N)N)C(=O)NCC(N)=O` (H-APRERRRKKRG-NH2): the Ki under setting [2] is above 100 nM.

Consider `CC(C)[C@H](NC(=O)[C@H](CCCNC(=N)N)NC(=O)[C@H](CCCCN)NC(=O)[C@H](CCCCN)NC(=O)[C@H](CCCNC(=N)N)NC(=O)[C@H](CCCNC(=N)N)NC(=O)[C@H](CCCNC(=N)N)NC(=O)[C@H](CCC(=O)O)NC(=O)[C@H](CCCNC(=N)N)NC(=O)[C@@H]1CCCN1C(=O)[C@H](C)N)C(N)=O` (H-APRERRRKKRV-NH2), for which, under setting [2], the Ki was above 100 nM.

In the case of `C[C@H](NC(=O)[C@H](C)NC(=O)[C@@H](N)[C@@H](C)O)C(=O)N[C@@H](CCC(=O)O)C(=O)N[C@@H](CCCNC(=N)N)C(=O)N[C@@H](CCCNC(=N)N)C(=O)N[C@@H](CCCNC(=N)N)C(=O)N[C@@H](CCCCN)C(=O)N[C@@H](CCCCN)C(=O)N[C@@H](CCCNC(=N)N)C(N)=O` (H-TAAERRRKKR-NH2), the Ki under setting [2] is above 100 nM.
